Measured values from PubChem BioAssay AID1845198 (Molecular Pharmacology Branch, DTP, NCI, 2023).

Tested on: 425362-245-T-J1 tumor spheroids, viability % test/control
Experiment: Anticancer human tumor 425362-245-T-J1 patient-derived melanoma cell line growth inhibition
Details: spheroids with HUVEC and MSC; for IC50: curve of first compound; for viability, T/C: stronger effect = lower value
Excerpt: Multicellular complex tumor spheroid response to DNA repair inhibitors in combination with DNA-damaging drugs
This study explores the anticancer activities of DNA-damaging drugs and inhibitors of DNA damage repair, both as single agents and in combinations. Complex tumor spheroids comprised of malignant cells, endothelial cells and mesenchymal stem cells served as an in vitro model for human solid tumors. This model system incorporates physiologically relevant features and patient-derived or established malignant cell lines with clinically relevant genetic alterations from many tumor types. Twenty-six patient-derived or established malignant cell lines were evaluated representing sarcoma, melanoma, small cell lung cancer (SCLC), non-small cell lung cancer (NSCLC), as well as bladder, ovarian and pancreatic cancers. The concentration ranges selected for each drug and investigational agent were based upon clinically achievable concentrations if the clinical Cmax of the agent was known.
Compounds. The drugs and compounds olaparib (NSC753686), talazoparib (NSC767125), berzosertib (NSC777718), elimusertib (NSC800525), nedisertib (NSC802822), VX-984 (NSC792969), AZD-1390 (NSC803789), temozolomide (NSC362856), topotecan (NSC609699), trabectedin (NSC813783), staurosporine (NSC755774), and gemcitabine (NSC613327) were obtained from the National Cancer Institute (NCI) Developmental Therapeutics Program Chemical Repository. The FDA-approved anticancer drug set is available from the Developmental Therapeutics Program at https://dtp.cancer.gov/organization/dscb/obtaining/available_plates.htm. […] The stock solutions were prepared in dimethyl sulfoxide (DMSO, Sigma-Aldrich, St. Louis, MO, cat. D2650) at 400-fold the tested concentration and stored at -70 degrees C. Prior to their use, the stock solutions were diluted in fresh medium and the final DMSO concentration in the assay was 0.25% (v/v). All drugs and investigational agents were tested over a range starting from a high concentration at or near the clinical Cmax and decreasing in half-log increments. If the clinical Cmax for an agent had not been determined, the highest concentration tested was 10 microM.
Cell Lines. The patient-derived cancer cell (PDC) lines: 156681-154-R-J1-PDC, 283228-195-R-J1-PDC, 287954-098-R-J1-PDC, 292921-168-R-J2-PDC, 349418-098-R-PDC, 425362-245-T-J1-PDC, 556581-035-R-J1-PDC, and BL0293-F563-PDC were received from the NCI Patient-Derived Models Repository (PDMR, https://pdmr.cancer.gov). The established cell lines HS-SY-2 (RRID:CVCL_8719), MPNST, and SYO-1 (RRID:CVCL_7146) were obtained from the Sloan Kettering Institute. The alveolar soft parts sarcoma cell line ASPS-1 (RRID:CVCL_S738) was established at the NCI and grown from internal seed stocks. The following established cell lines were purchased from the American Type Culture Collection (ATCC, Manassas, VA): G-401 (ATCC, cat. CRL-1441, RRID:CVCL_0270), SW982 (ATCC, cat. HTB-93, RRID:CVCL_1734), VA-ES-BJ (ATCC, cat. CRL-2138, RRID:CVCL_1785), NCI-H719 (ATCC, cat. CRL-5837, RRID:CVCL_1582), NCI-H196 (ATCC, cat. CRL-5823, RRID:CVCL_1509), NCI-H841 (ATCC, cat. CRL-5845, RRID:CVCL_1595), NCI-H1618 (ATCC, cat. CRL-5879, RRID:CVCL_1480), NCI-H1876 (ATCC, cat. CRL-5902, RRID:CVCL_1503), DMS 114 (ATCC, cat. CRL-2066; RRID:CVCL_1174), NCI-H211 (ATCC, cat. CRL-5824; RRID:CVCL_1529), and SW 1271 (ATCC, cat. CRL-2177, RRID:CVCL_1716). The small cell lung cancer cell line COR-L88 was purchased from Sigma-Aldrich (cat. 92031917-1VL, RRID:CVCL_1141). The non-small cell lung cancer cell lines NCI-H226 (RRID:CVCL_1544) and NCI-H322M (RRID:CVCL_1557) were established at the NCI and grown from internal seed stocks. Pooled donor human umbilical vein endothelial cells (HUVEC, Lonza, cat. CC-2519) and human mesenchymal stem cells (hMSC, Lonza, cat. PT-2501) were purchased from Lonza (Walkersville, MD).
Cell Culture. All cells were maintained in an incubator at 37 degrees C and 5% CO2 with 95% humidity. […]
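Also: spheroids exposed to agents for 7 days.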
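For viability, T/C in this document: 100% = DMSO vehicle control viability.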

SMILES: Cc1cc(C)c(CNC(=O)c2cc(-c3ccc(CN4CCOCC4)cc3)cc3c2cnn3C2CCCC2)c(=O)[nH]1 + CC[C@@]1(O)C(=O)OCc2c1cc1n(c2=O)Cc2cc3c(CN(C)C)c(O)ccc3nc2-1
- IC50 (second compound 0.003 µM): 3.21 µM
- IC50 (second compound 0.00949 µM): 1.96 µM
- IC50 (second compound 0.03 µM): < 0.0316 µM
- IC50 (second compound 0.0949 µM): < 0.0316 µM
- IC50 (second compound 0.3 µM): < 0.0316 µM
- viability, T/C (second compound 0.003 µM, first compound 0.0316 µM): 103%
- viability, T/C (second compound 0.003 µM, first compound 0.1 µM): 81.8%
- viability, T/C (second compound 0.003 µM, first compound 0.316 µM): 84%
- viability, T/C (second compound 0.003 µM, first compound 1 µM): 72.9%
- viability, T/C (second compound 0.003 µM, first compound 3.16 µM): 53.1%
- viability, T/C (second compound 0.003 µM, first compound 10 µM): 10.1%
- viability, T/C (second compound 0.00949 µM, first compound 0.0316 µM): 81.9%
- viability, T/C (second compound 0.00949 µM, first compound 0.1 µM): 75%
- viability, T/C (second compound 0.00949 µM, first compound 0.316 µM): 79.8%
- viability, T/C (second compound 0.00949 µM, first compound 1 µM): 54.1%
- viability, T/C (second compound 0.00949 µM, first compound 3.16 µM): 45.2%
- viability, T/C (second compound 0.00949 µM, first compound 10 µM): 16.8%
- viability, T/C (second compound 0.03 µM, first compound 0.0316 µM): 32.9%
- viability, T/C (second compound 0.03 µM, first compound 0.1 µM): 37.2%
- viability, T/C (second compound 0.03 µM, first compound 0.316 µM): 35.6%
- viability, T/C (second compound 0.03 µM, first compound 1 µM): 33.1%
- viability, T/C (second compound 0.03 µM, first compound 3.16 µM): 11.7%
- viability, T/C (second compound 0.03 µM, first compound 10 µM): 7.5%
- viability, T/C (second compound 0.0949 µM, first compound 0.0316 µM): 6%
- viability, T/C (second compound 0.0949 µM, first compound 0.1 µM): 6.44%
- viability, T/C (second compound 0.0949 µM, first compound 0.316 µM): 4.34%
- viability, T/C (second compound 0.0949 µM, first compound 1 µM): 5.8%
- viability, T/C (second compound 0.0949 µM, first compound 3.16 µM): 5.25%
- viability, T/C (second compound 0.0949 µM, first compound 10 µM): 6.46%
- viability, T/C (second compound 0.3 µM, first compound 0.0316 µM): 1.9%
- viability, T/C (second compound 0.3 µM, first compound 0.1 µM): 2.19%
- viability, T/C (second compound 0.3 µM, first compound 0.316 µM): 2.16%
- viability, T/C (second compound 0.3 µM, first compound 1 µM): 2.06%
- viability, T/C (second compound 0.3 µM, first compound 3.16 µM): 2.3%
- viability, T/C (second compound 0.3 µM, first compound 10 µM): 2.37%

SMILES: Cc1sc2c(c1C)C(c1ccc(Cl)cc1)=NC(CC(=O)Nc1ccc(O)cc1)c1nnc(C)n1-2 (stereo not given) + CC[C@@]1(O)C(=O)OCc2c1cc1n(c2=O)Cc2cc3c(CN(C)C)c(O)ccc3nc2-1
- IC50 (second compound 0.003 µM): 0.055 µM
- IC50 (second compound 0.00949 µM): 0.0523 µM
- IC50 (second compound 0.03 µM): < 0.00949 µM
- IC50 (second compound 0.0949 µM): < 0.00949 µM
- IC50 (second compound 0.3 µM): < 0.00949 µM
- viability, T/C (second compound 0.003 µM, first compound 0.00949 µM): 90.7%
- viability, T/C (second compound 0.003 µM, first compound 0.03 µM): 67.6%
- viability, T/C (second compound 0.003 µM, first compound 0.0949 µM): 35%
- viability, T/C (second compound 0.003 µM, first compound 0.3 µM): 7.09%
- viability, T/C (second compound 0.003 µM, first compound 0.949 µM): 2.44%
- viability, T/C (second compound 0.003 µM, first compound 3 µM): 1.89%
- viability, T/C (second compound 0.00949 µM, first compound 0.00949 µM): 78.9%
- viability, T/C (second compound 0.00949 µM, first compound 0.03 µM): 68.7%
- viability, T/C (second compound 0.00949 µM, first compound 0.0949 µM): 30%
- viability, T/C (second compound 0.00949 µM, first compound 0.3 µM): 9.43%
- viability, T/C (second compound 0.00949 µM, first compound 0.949 µM): 2.81%
- viability, T/C (second compound 0.00949 µM, first compound 3 µM): 2.08%
- viability, T/C (second compound 0.03 µM, first compound 0.00949 µM): 36%
- viability, T/C (second compound 0.03 µM, first compound 0.03 µM): 24.5%
- viability, T/C (second compound 0.03 µM, first compound 0.0949 µM): 20.9%
- viability, T/C (second compound 0.03 µM, first compound 0.3 µM): 8.2%
- viability, T/C (second compound 0.03 µM, first compound 0.949 µM): 2.92%
- viability, T/C (second compound 0.03 µM, first compound 3 µM): 1.49%
- viability, T/C (second compound 0.0949 µM, first compound 0.00949 µM): 6.49%
- viability, T/C (second compound 0.0949 µM, first compound 0.03 µM): 7.18%
- viability, T/C (second compound 0.0949 µM, first compound 0.0949 µM): 5.96%
- viability, T/C (second compound 0.0949 µM, first compound 0.3 µM): 2%
- viability, T/C (second compound 0.0949 µM, first compound 0.949 µM): 1.05%
- viability, T/C (second compound 0.0949 µM, first compound 3 µM): 1.03%
- viability, T/C (second compound 0.3 µM, first compound 0.00949 µM): 2.2%
- viability, T/C (second compound 0.3 µM, first compound 0.03 µM): 1.82%
- viability, T/C (second compound 0.3 µM, first compound 0.0949 µM): 1.38%
- viability, T/C (second compound 0.3 µM, first compound 0.3 µM): 1.33%
- viability, T/C (second compound 0.3 µM, first compound 0.949 µM): 0.79%
- viability, T/C (second compound 0.3 µM, first compound 3 µM): 0.59%
